Data as given in US20250092065A1, “2-(INDAZOL-5-YL)-6-(PIPERIDIN-4-YL)-1,7-NAPHTHYRIDINE DERIVATIVES AND RELATED COMPOUNDS AS MODULATORS FOR SPLICING NUCLEIC ACIDS AND FOR THE TREATMENT OF PROLIFERATIVE DISEASES” (REMIX THERAPEUTICS INC., priority 2022, published 2025).
Structures can show the parent of a compound that is named as a salt. Where two headings read alike, the source gives them in different places.

Columns and labels:
MYB mRNA = assay: RT-qPCR splicing assay, MYB mRNA canonical (CJ) and alternative (AJ) junction; type: cell-based, human; conditions: Homo sapiens; for AC50: MYB alternative junction mRNA, read-out: MYB AJ (increase in AJ mRNA, AC50)
Method in brief: (§1)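 A673 or K562 cells treated 24 h at 37 °C with an 11-point 3-fold dilution series (top 10 uM, DMSO ≤0.25%). Lysates went directly to one-step RT-qPCR quantifying canonical (CJ) and alternative-exon (AJ) junctions, normalized to GAPDH, GUSB or PPIA. Values from ΔΔCt versus DMSO, RQ = 2^(−ΔΔCt), expressed as percentage response.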

HTT mRNA = assay: RT-qPCR splicing assay, HTT mRNA canonical (CJ) and alternative (AJ) junction; type: cell-based, human; conditions: Homo sapiens; for AC50: HTT alternative junction mRNA, read-out: HTT AJ (increase in AJ mRNA, AC50)
Method in brief: as §1

Target C = assay: RT-qPCR canonical junction panel assay, Target C mRNA; type: cell-based; conditions: Table 4, read-out: Target C IC50 (decrease in CJ mRNA levels)
Method in brief: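 A673 or K562 cells treated with compound; CJ mRNA quantified by junction-spanning RT-qPCR probe after cDNA synthesis, normalised to GAPDH, GUSB or PPIA and DMSO (2^−ΔΔCt), scaled to set ΔCt assay window; IC50 from 4-parameter fit of CJ decrease.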

[1] = MYB canonical junction mRNA, RT-qPCR, read-out: MYB CJ (decrease in CJ mRNA levels, IC50)
[2] = canonical junction qPCR panel, Table 4, read-out: MYB IC50 (decrease in CJ mRNA levels)
[3] = HTT canonical junction mRNA, RT-qPCR, read-out: HTT CJ (decrease in CJ mRNA levels, IC50)
[4] = canonical junction qPCR panel, Table 4, read-out: HTT IC50 (decrease in CJ mRNA levels)

IC50 (MYB mRNA; [1]) [nM] | IC50 (MYB mRNA; [2]) [nM] | IC50 (HTT mRNA; [3]) [nM] | IC50 (HTT mRNA; [4]) [nM] | IC50 (Target C) [nM] | Structure (SMILES) | AC50 (MYB mRNA; RT-qPCR) [nM] | AC50 (HTT mRNA; RT-qPCR) [nM]
< 100 | < 100 | < 100 | < 100 | 1000 to 10000 | C[C@H]1CN(c2ccc3nc(-c4cc5cn(C)nc5c(F)c4O)ncc3c2)C[C@H](C)N1 [Compound 744, 5-{6-[(3S,5S)-3,5-dimethylpiperazin-1-yl]quinazolin-2-yl}-7-fluoro-2-methylindazol-6-ol] | < 100 | < 100
< 100 | < 100 | 100 to 1000 | 100 to 1000 | 1000 to 10000 | C[C@@H]1CN(c2ccc3nc(-c4cc5cn(C)nc5c(F)c4O)ncc3c2)C[C@@H](C)N1 [Compound 745, 5-{6-[(3R,5R)-3,5-dimethylpiperazin-1-yl]quinazolin-2-yl}-7-fluoro-2-methylindazol-6-ol] | < 100 | 100 to 1000
100 to 1000 | 100 to 1000 | > 10000 | > 10000 | > 10000 | CN[C@@H]1CCN(c2cc3c(Cl)cc(-c4cc5cn(C)nc5c(C)c4O)nc3cc2C)C1 [Compound 748, 5-{4-chloro-7-methyl-6-[(3R)-3-(methylamino)pyrrolidin-1-yl]quinolin-2-yl}-2,7-dimethylindazol-6-ol] | 1000 to 10000 | > 10000
100 to 1000 | 100 to 1000 | > 10000 | > 10000 | 1000 to 10000 | CN[C@H]1CCN(c2cc3c(Cl)cc(-c4cc5cn(C)nc5c(C)c4O)nc3cc2C)C1 [Compound 749, 5-{4-chloro-7-methyl-6-[(3S)-3-(methylamino)pyrrolidin-1-yl]quinolin-2-yl}-2,7-dimethylindazol-6-ol] | 100 to 1000 | > 10000
< 100 | < 100 | 100 to 1000 | 100 to 1000 | 100 to 1000 | Cn1cc2cc(-c3ncc4cc(N5CCC(N6CCC6)CC5)ccc4n3)c(O)c(F)c2n1 [Compound 750, 5-{6-[4-(azetidin-1-yl)piperidin-1-yl]quinazolin-2-yl}-7-fluoro-2-methylindazol-6-ol] | 100 to 1000 | 100 to 1000
100 to 1000 | 100 to 1000 | > 10000 | > 10000 | > 10000 | C[C@@H]1CN(c2ccc3nc(-c4cc5cn(C)nc5cc4O)ncc3c2)C[C@H](C)N1 [Compound 751, 5-{6-[(3R,5S)-3,5-dimethylpiperazin-1-yl]quinazolin-2-yl}-2-methylindazol-6-ol hydrochloride] | 100 to 1000 | > 10000
< 100 | < 100 | 1000 to 10000 | 1000 to 10000 | > 10000 | C[C@H]1CN(c2ccc3nc(-c4cc5cn(C)nc5cc4O)ncc3c2)C[C@H](C)N1 [Compound 752, 5-{6-[(3S,5S)-3,5-dimethylpiperazin-1-yl]quinazolin-2-yl}-2-methylindazol-6-ol] | < 100 | 1000 to 10000
100 to 1000 | 100 to 1000 | 1000 to 10000 | 1000 to 10000 | > 10000 | C[C@@H]1CN(c2ccc3nc(-c4cc5cn(C)nc5cc4O)ncc3c2)C[C@@H](C)N1 [Compound 753, 5-{6-[(3R,5R)-3,5-dimethylpiperazin-1-yl]quinazolin-2-yl}-2-methylindazol-6-ol] | 100 to 1000 | 1000 to 10000
100 to 1000 | 100 to 1000 | 100 to 1000 | 100 to 1000 | 100 to 1000 | CCN(CC)C1CCN(c2ccc3nc(-c4cc5cn(C)nc5c(F)c4O)ncc3c2)CC1 [Compound 756, 5-{6-[4-(diethylamino)piperidin-1-yl]quinazolin-2-yl}-7-fluoro-2-methylindazol-6-ol] | 100 to 1000 | 100 to 1000
